Laboratory results: PMC6792350 (Environmental Health Perspectives, 2019)

Assay: Cumulative urinary excretion after IV and oral dosing in piglets
Description: Blood samples were collected in heparinized polypropylene tubes, immediately chilled in ice and centrifuged for 10 min at 3,000×g at 4°C, and the supernatant plasma was stored in polypropylene tubes at −20°C until assay. Total urine was filtered through a nylon mesh ( 250μm ) and collected in glass containers and chilled in ice. The volume of each urine sample and the sampling time were recorded. A urine sample was immediately chilled in ice and centrifuged for 10 min at 3,000×g at 4°C and stored at −20°C until assayed.
Analytes were quantified by Acquity UPLC-MS/MS (Waters Corporation).
All TK analyses were performed using the Phoenix® NLME (version 8.0; Pharsight Corporation). The plasma mass concentrations were converted into molar concentrations before analysis.

O=S(=O)(c1ccc(O)cc1)c1ccc(O)cc1 [BPS, bisphenol S]
part of the dose eliminated in urine (3 h after dosing): About half | unconjugated compound in urine, fraction of IV dose (IV BPA and BPS doses): 0.027±0.0084%
